How the values were obtained:
[1] = tested on: atopic dermatitis, ichthyosis and age-associated wrinkles; settings: in vivo; cited from earlier work
[2] = interaction with water (water solubility); format: physicochemical; settings: 2 g in 100 ml distilled water
Method: For this test, 2 g of each sample was dissolved by heating in a beaker, 100 ml of distilled water at 70° C. was added and the mixture was stirred at the constant temperature of 70° C. for about 1 hour, after which it was allowed to cool and examined.

Compound	effect in skin conditions [1]	Stability (in words) [2]	Condition of aqueous solution ([2]; 70° C., 1 hour, cooled)
O=C(O)CC(O)(CC(=O)O)C(=O)O [citric acid]	effective in atopic dermatitis, ichthyosis and reduction of age-associated wrinkles	–	–
CCCCCCCCCCCCCCCCCC(=O)OCC(O)CO (centres unmarked) [GLYMSA, Glycerol monostearate]	–	Phase separation on standing	Emulsion
CC(O)C(=O)O (centres unmarked) [lactic acid]	effective in atopic dermatitis, ichthyosis and reduction of age-associated wrinkles	–	–
O=C(O)C(O)C(O)C(=O)O (centres unmarked) [tartaric acid]	effective in atopic dermatitis, ichthyosis and reduction of age-associated wrinkles	–	–
